Measured values reported in patent US20160250213A1, “FORMULATIONS OF AZAINDOLE COMPOUNDS” (priority 2013, published 2016).
Read-outs that look alike come from different tables or passages of the source.

Experiments:
[1] = Hydrate formation of free base versus humidity / water activity; assay type: physicochemical; conditions: ambient temperature
[2] = for Sol. / Resulting Form: ambient temperature
physchem = conditions: water, thermodynamic from solid

O=C(O)[C@H]1C2CCC(CC2)C1Nc1nc(-c2c[nH]c3ncc(F)cc23)ncc1F (stereo partly drawn) [Form A free base Compound (1)]
water activity where the hydrate form was observed [1]: greater than 0.6
Sol. ([2]; solvent 1,1,2-Trichloroethane): 1.0 mg/mL
Sol. ([2]; solvent 1,2-Dichloroethane): 0.4 mg/mL
Sol. ([2]; solvent 1,2-Dimethoxyethane): 114.0 mg/mL
Resulting Form ([2]; solvent 1,4-Dioxane): Solvate (1:1)
Sol. ([2]; solvent 1,4-Dioxane): 21.3 mg/mL
Sol. ([2]; solvent 1-Butanol): 21.0 mg/mL
Resulting Form ([2]; solvent 1-Pentanol): No signal
Sol. ([2]; solvent 1-Pentanol): 14.5 mg/mL
Resulting Form ([2]; solvent 1-Propanol): Solvate
Sol. ([2]; solvent 1-Propanol): 15.9 mg/mL
Resulting Form ([2]; solvent 2-Butanol): Solvate (1:1)
Sol. ([2]; solvent 2-Butanol): 14.0 mg/mL
Resulting Form ([2]; solvent 2-Ethoxyethanol): Amorphous
Sol. ([2]; solvent 2-Ethoxyethanol): >113 mg/mL
Resulting Form ([2]; solvent 2-Methoxyethanol): Amorphous
Sol. ([2]; solvent 2-Methoxyethanol): >114 mg/mL
Sol. ([2]; solvent 2-Methy-1-propanol): 12.2 mg/mL
Resulting Form ([2]; solvent 2-Propanol): Solvate(1:1)
Sol. ([2]; solvent 2-Propanol): 12.9 mg/mL
Sol. ([2]; solvent 3-Methyl-1-butanol): 9.7 mg/mL
Resulting Form ([2]; solvent Acetone): Solvate
Sol. ([2]; solvent Acetone): 16.3 mg/mL
Sol. ([2]; solvent Acetonitrile): 1.0 mg/mL
Sol. ([2]; solvent Anisole): 0.7 mg/mL
Sol. ([2]; solvent Butyl acetate): 8.1 mg/mL
Sol. ([2]; solvent Chlorobenzene): 0.4 mg/mL
Sol. ([2]; solvent Chloroform): 3.8 mg/mL
Sol. ([2]; solvent Cumene): 0.3 mg/mL
Sol. ([2]; solvent Cyclohexane): <0.1 mg/mL
Sol. ([2]; solvent Dichloromethane): 0.9 mg/mL
Resulting Form ([2]; solvent Dimethylsulfoxide): No signal
Sol. ([2]; solvent Dimethylsulfoxide): >113 mg/mL
Resulting Form ([2]; solvent Ethanol): No signal
Sol. ([2]; solvent Ethanol): 35.5 mg/mL
Sol. ([2]; solvent Ethyl acetate): 11.6 mg/mL
Sol. ([2]; solvent Ethyl ether): 3.5 mg/mL
Sol. ([2]; solvent Ethyl formate): 8.1 mg/mL
Sol. ([2]; solvent Ethylene glycol): 10.4 mg/mL
Sol. ([2]; solvent Formamide): 7.0 mg/mL
Resulting Form ([2]; solvent Formic acid): Amorphous
Sol. ([2]; solvent Formic acid): >89.4 mg/mL
Sol. ([2]; solvent Heptane): <1.5 mg/mL
Sol. ([2]; solvent Hexane): <0.1 mg/mL
Sol. ([2]; solvent Isobutyl acetate): 4.4 mg/mL
Sol. ([2]; solvent Isopropyl acetate): 6.2 mg/mL
Resulting Form ([2]; solvent Methanol): Solvate
Sol. ([2]; solvent Methanol): 25.5 mg/mL
Resulting Form ([2]; solvent Methyl acetate): Solvate
Sol. ([2]; solvent Methyl acetate): 9.4 mg/mL
Resulting Form ([2]; solvent Methyl tetrahydrofuran): Solvate(1:1)
Sol. ([2]; solvent Methyl tetrahydrofuran): 34.8 mg/mL
Sol. ([2]; solvent Methylbutyl ketone): 20.0 mg/mL
Sol. ([2]; solvent Methylcyclohexane): <0.1 mg/mL
Resulting Form ([2]; solvent Methylethyl ketone): Amorphous
Sol. ([2]; solvent Methylethyl ketone): 27.3 mg/mL
Resulting Form ([2]; solvent N,N-Dimethylacetamide): Solvate
Sol. ([2]; solvent N,N-Dimethylacetamide): >150 mg/mL
Resulting Form ([2]; solvent N,N-Dimethylformamide): Solvate
Sol. ([2]; solvent N,N-Dimethylformamide): 39.2 mg/mL
Sol. ([2]; solvent N-Methylpyrrolidinone): >149 mg/mL
Sol. ([2]; solvent Nitromethane): 0.3 mg/mL
Sol. ([2]; solvent Pentane): <0.3 mg/mL
Sol. ([2]; solvent Propyl acetate): 7.5 mg/mL
Resulting Form ([2]; solvent Tetrahydrofuran): Solvate(1:1)
Sol. ([2]; solvent Tetrahydrofuran): 61.2 mg/mL
Sol. ([2]; solvent Tetralin): <0.1 mg/mL
Sol. ([2]; solvent Toluene): 0.3 mg/mL
Resulting Form ([2]; solvent Water-IPA 1:1): Solvate
Resulting Form ([2]; solvent Water-MeOH 1:1): Solvate
Resulting Form ([2]; solvent Water-MeOH 1:3): Solvate
Sol. ([2]; solvent acetic acid): 42.8 mg/mL
stability in solvent systems ([2]; solvent systems listed in b344 (acetonitrile to water-acetonitrile)): stable
Resulting Form ([2]; solvent t-Butylmethylether): Amorphous
Sol. ([2]; solvent t-Butylmethylether): 10.4 mg/mL
Resulting Form ([2]; solvent xylene): Solvate
Sol. ([2]; solvent xylene): 0.3 mg/mL
solubility thermodynamic at 2 weeks (physchem): < 100 µg/mL
